“Also recorded” adds a separate entry of the source. Where a name gives a salt, the structure may show the parent alone.
Tests used:
[1] = test system: CD34+Lin− stem and progenitor cells; test: FACS analysis of hematopoietic stem and progenitor profiles of CML patient samples before and after imatinib; format: in vivo, human
Description: Bone Marrow and Peripheral Blood Samples. Fresh human bone marrow was obtained with informed consent from healthy volunteers (AllCells, Berkeley, Calif.) as well as from allogeneic bone marrow donors (Department of Bone Marrow Transplantation, Stanford School of Medicine, Stanford, Calif.). Cytokine (G-CSF) mobilized peripheral blood samples were also obtained following apheresis from allogeneic donors.
Hematopoietic Stem Cell and Myeloid Progenitor Flow Cytometric Analysis and Cell Sorting. Mononuclear fractions were extracted following Ficoll density centrifugation according to standard methods and analyzed fresh or subsequent to rapid thawing of samples previously frozen in 90% FCS and 10% DMSO in liquid nitrogen. Prior to FACS analysis and sorting, hematopoietic stem cells (HSCs) were stained with lineage marker specific phycoerythrin (PE)-Cy5-conjugated antibodies including CD2 RPA-2.10; CD11b, ICRF44; CD20, 2H7; CD56, B159; GPA, GA-R2 (Becton Dickinson-PharMingen, San Diego), CD3, S4.1; CD4, S3.5; CD7, CD7-6B7; CD8, 3B5; CD10, 5-1B4, CD14, TUK4; CD19, SJ25-C1 (Caltag, South San Francisco, Calif.) and APC-conjugated anti-CD34, 84G12 (Becton Dickinson-Pharmingen), biotinylated anti-CD38, HIT2 (Caltag), FITC-conjugated anti-CD90 and PE conjugated anti-Flk2. […]
Myeloid progenitors were stained with the same lineage marker specific PE-Cy5-conjugated antibodies, APC-conjugated anti-CD34, 8G12 (Becton Dickinson-PharMingen) and biotinylated anti-CD38, HIT2 (Caltag) in addition to PE-conjugated anti-IL-3Rα, 9F5 (Becton Dickinson-ParMingen) and FITC-conjugated anti-CD45RA, MEM56 (Caltag) followed by staining with Streptavidin-Texas Red to visualize CD38-BIO stained cells and resuspension in propidium iodide to exclude dead cells. Unstained samples and isotype controls were included to assess background fluorescence. After staining, cells were analyzed and sorted using a modified FACS Vantage (Becton Dickinson Immunocytometry Systems, Mountain View, Calif.) equipped with a 599 nm dye laser and a 488 nm argon laser. […]

β-catenin = β-catenin FACS analysis of CML patient progenitors; format: in vivo, human; conditions: CML patients pre versus post-imatinib
Description: β-catenin FACS Analysis. FACS-separated hematopoietic stem cells, common myeloid progenitors, granulocyte/macrophage progenitors, and megakaryocyte/erythroid progenitors were fixed with 0.8% paraformaldehyde and made permeable with 0.3% saponin. Cells were stained overnight with a fluorescein isothiocyanate (FITC)-conjugated antibody to β-catenin (Transduction Laboratories) or IgG1 isotype control-FITC antibody, washed, and analyzed by FACS.

In the case of `Cc1ccc(NC(=O)c2ccc(CN3CCN(C)CC3)cc2)cc1Nc1nccc(-c2cccnc2)n1` [imatinib, imatinib mesylate], the “number of CD34+Lin− cells” value ([1]; CML patients post-imatinib / responding to imatinib, bone marrow and peripheral blood) is reported as “dramatic decline; also recorded: significant decrease”, the “number of CD34+CD38− and CD34+CD38+ cells” value ([1]; imatinib responsive patients) is reported as “decreased” and the “proportion of individual myeloid progenitors” value ([1]; imatinib responsive patients) is reported as “reverted to normal”. For the same compound, the “β-catenin levels (MFI) in myeloid progenitors” value (β-catenin) was “normal”.
